From US20080176862A1, “New Compounds 617” (ASTRAZENECA AB, priority 2006, published 2008)
Counter-ions that a name gives are not always drawn.

Target: T1, human β-Secretase (soluble part, AA1-AA460; sBACE-Fc) (Homo sapiens, UniProt P56817)
T1 construct: The soluble part of the human β-Secretase (AA1-AA460) was cloned into the ASP2-Fc10-1-IRES-GFP-neoK mammalian expression vector; made in house
Experiment: TR-FRET assay
Format: biochemical
Details: substrate (Europium)CEVNLDAEFK(Qsy7) 100 nM, pH 4.5, 15 min at RT; read-out: IC50 (nM) in TR-FRET assay

T1 sequence (P56817 22-460): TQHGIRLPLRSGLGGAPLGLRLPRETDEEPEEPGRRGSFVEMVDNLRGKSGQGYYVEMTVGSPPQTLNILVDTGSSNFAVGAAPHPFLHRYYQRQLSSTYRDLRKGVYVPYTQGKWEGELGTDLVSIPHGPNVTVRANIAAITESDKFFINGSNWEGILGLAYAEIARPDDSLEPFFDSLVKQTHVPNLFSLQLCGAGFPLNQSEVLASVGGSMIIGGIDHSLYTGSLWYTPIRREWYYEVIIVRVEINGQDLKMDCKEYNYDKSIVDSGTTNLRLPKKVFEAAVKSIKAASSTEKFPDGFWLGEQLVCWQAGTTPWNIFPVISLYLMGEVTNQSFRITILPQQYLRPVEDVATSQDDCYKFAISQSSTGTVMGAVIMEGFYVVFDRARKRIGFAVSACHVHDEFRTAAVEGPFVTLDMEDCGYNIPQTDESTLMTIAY

IC50 [nM] | Compound
54 | CN1C(=O)C(c2ccc(OC(F)F)cc2)(c2ccc(F)c(-c3cncc(OS(C)(=O)=O)c3)c2)N=C1N (centres unmarked) [Example 73, 5-(5-{2-Amino-4-[4-(difluoromethoxy)phenyl]-1-methyl-5-oxo-4,5-dihydro-1H-imidazol-4-yl}-2-fluorophenyl)pyridin-3-yl methanesulfonate hydrochloride]
59 | COc1ccc(OC)c(S(=O)(=O)Oc2ccc(C3(c4ccc(F)c(-c5cccnc5)c4)N=C(N)N(C)C3=O)cc2)c1 (centres unmarked) [Example 282, 4-[2-Amino-4-(4-fluoro-3-pyridin-3-ylphenyl)-1-methyl-5-oxo-4,5-dihydro-1H-imidazol-4-yl]phenyl 2,5-dimethoxybenzenesulfonate0.25 acetate]
18 | COc1cc(OS(C)(=O)=O)cc(-c2cccc(C3(c4ccc(OC(F)F)cc4)N=C(N)N(C)C3=O)c2)c1 (centres unmarked) [Example 63, 3′-{2-Amino-4-[4-(difluoromethoxy)phenyl]-1-methyl-5-oxo-4,5-dihydro-1H-imidazol-4-yl}-5-methoxybiphenyl-3-yl methanesulfonate 0.25acetate]
89 | Cc1cc(C2(c3cccc(-c4cc(Cl)cc(OS(C)(=O)=O)c4)c3)N=C(N)N(C)C2=O)cc(C)n1 (centres unmarked) [Example 306, 3′-(2-Amino-4-(2,6-dimethylpyridin-4-yl)-1-methyl-5-oxo-4,5-dihydro-1H-imidazo-4-yl)-5-chlorobiphenyl-3-yl methanesulfonate hydrochloride]
163 | CN1C(=O)C(c2ccc(OS(=O)(=O)C(F)(F)F)cc2)(c2ccc(F)c(-c3cc(Cl)ccn3)c2)N=C1N (centres unmarked) [Example 149, 4-{2-Amino-4-[3-(4-chloropyridin-2-yl)-4-fluorophenyl]-1-methyl-5-oxo-4,5-dihydro-1H-imidazol-4-yl}phenyl trifluoromethanesulfonate 0.75 acetate]
68 | CN1C(=O)C(c2ccc(OS(=O)(=O)c3c(Cl)nc4sccn34)cc2)(c2ccc(F)c(-c3cccnc3)c2)N=C1N (centres unmarked) [Example 286]
859 | CN1C(=O)C(c2cccc(OS(=O)(=O)c3ccc(Cl)s3)c2)(c2ccc(F)c(Br)c2)N=C1N (centres unmarked) [Example 231, 3-[2-Amino-4-(3-bromo-4-fluorophenyl)-1-methyl-5-oxo-4,5-dihydro-1H-imidazol-4-yl]phenyl 5-chlorothiophene-2-sulfonate]
20 | Cc1nn(C)c(Cl)c1S(=O)(=O)Oc1cccc(C2(c3ccc(F)c(-c4cncnc4)c3)N=C(N)N(C)C2=O)c1 (centres unmarked) [Example 241, 3-[2-Amino-4-(4-fluoro-3-pyrimidin-5-ylphenyl)-1-methyl-5-oxo-4,5-dihydro-1H-imidazol-4-yl]phenyl 5-chloro-1,3-dimethyl-1H-pyrazole-4-sulfonate]
186 | COc1cccc(-c2cc(C3(c4cccc(OS(=O)(=O)C(C)C)c4)N=C(N)N(C)C3=O)ccc2F)c1 (centres unmarked) [Example 108, 3-[2-Amino-4-(6-fluoro-3′-methoxybiphenyl-3-yl)-1-methyl-5-oxo-4,5-dihydro-1H-imidazol-4-yl]phenyl propane-2-sulfonate]
633 | CN1C(=O)C(c2cccc(OS(=O)(=O)c3c(F)cccc3F)c2)(c2ccc(F)c(Br)c2)N=C1N (centres unmarked) [Example 225, 3-[2-Amino-4-(3-bromo-4-fluorophenyl)-1-methyl-5-oxo-4,5-dihydro-1H-imidazol-4-yl]phenyl 2,6-difluorobenzenesulfonate]
365 | COc1cccc(-c2cc(C3(c4ccc(OS(C)(=O)=O)cc4)N=C(N)N(C)C3=O)ccn2)c1 (centres unmarked) [Example 39, 4-{2-Amino-4-[2-(3-methoxyphenyl)pyridin-4-yl]-1-methyl-5-oxo-4,5-dihydro-1H-imidazol-4-yl}phenyl methanesulfonate 0.25 acetate]
646 | CN1C(=O)C(c2cccc(OS(C)(=O)=O)c2)(c2cccc(C3=CCCC3)c2)N=C1N (centres unmarked) [Example 195, 3-[2-Amino-4-(3-cyclopent-1-en-1-yl-phenyl)-1-methyl-5-oxo-4,5-dihydro-1H-imidazol-4-yl]phenyl methanesulfonate hydrochloride]
107 | CN1C(=O)C(c2ccc(OS(=O)(=O)C(F)(F)F)cc2)(c2ccc(F)c(-c3cccnc3)c2)N=C1N (centres unmarked) [Example 141, 4-[2-Amino-4-(4-fluoro-3-pyridin-3-ylphenyl)-1-methyl-5-oxo-4,5-dihydro-1H-imidazol-4-yl]phenyl trifluoromethanesulfonate 0.5 acetate]
352 | CCCS(=O)(=O)Oc1cccc(C2(c3ccc(F)c(-c4cc(Cl)cnc4F)c3)N=C(N)N(C)C2=O)c1 (centres unmarked) [Example 95, 3-{2-Amino-4-[3-(5-chloro-2-fluoropyridin-3-yl)-4-fluorophenyl]-1-methyl-5-oxo-4,5-dihydro-1H-imidazol-4-yl}phenyl propane-1-sulfonate]
239 | CCCS(=O)(=O)Oc1cccc(C2(c3ccc(F)c(-c4cccc(Cl)c4)c3)N=C(N)N(C)C2=O)c1 (centres unmarked) [Example 98, 3-[2-Amino-4-(3′-chloro-6-fluorobiphenyl-3-yl)-1-methyl-5-oxo-4,5-dihydro-1H-imidazol-4-yl]phenyl propane-1-sulfonate]
395 | CCCS(=O)(=O)Oc1cccc(C2(c3ccc(F)c(-c4cc(Cl)cc(Cl)c4)c3)N=C(N)N(C)C2=O)c1 (centres unmarked) [Example 100, 3-[2-Amino-4-(3′,5′-dichloro-6-fluorobiphenyl-3-yl)-1-methyl-5-oxo-4,5-dihydro-1H-imidazol-4-yl]phenyl propane-1-sulfonate]
186 | CC(C)S(=O)(=O)Oc1cccc(C2(c3ccc(F)c(-c4cccnc4F)c3)N=C(N)N(C)C2=O)c1 (centres unmarked) [Example 104, 3-{2-Amino-4-[4-fluoro-3-(2-fluoropyridin-3-yl)phenyl]-1-methyl-5-oxo-4,5-dihydro-1H-imidazol-4-yl}phenyl propane-2-sulfonate]
19 | CN1C(=O)C(c2cccc(OS(=O)(=O)c3ccc4c(c3)CCC4)c2)(c2ccc(F)c(-c3cncnc3)c2)N=C1N (centres unmarked) [Example 239, 3-[2-Amino-4-(4-fluoro-3-pyrimidin-5-ylphenyl)-1-methyl-5-oxo-4,5-dihydro-1H-imidazol-4-yl]phenyl indane-5-sulfonate]
682 | CCN1C(=O)C(c2ccc(OS(C)(=O)=O)cc2)(c2ccc(F)c(-c3cncnc3)c2)N=C1N (centres unmarked) [Example 162, 4-[2-Amino-4-(4-fluoro-3-pyrimidin-5-ylphenyl)-1-ethyl-5-oxo-4,5-dihydro-1H-imidazol-4-yl]phenyl methanesulfonate]
140 | CN1C(=O)C(c2ccc(OS(=O)(=O)C(F)(F)F)cc2)(c2ccc(F)c(-c3cccnc3F)c2)N=C1N (centres unmarked) [Example 142, 4-{2-Amino-4-[4-fluoro-3-(2-fluoropyridin-3-yl)phenyl]-1-methyl-5-oxo-4,5-dihydro-1H-imidazol-4-yl}phenyl trifluoromethanesulfonate 0.75 acetate]
79 | CCC(C)(C)c1ccc(S(=O)(=O)Oc2ccc(C3(c4ccc(F)c(-c5cccnc5)c4)N=C(N)N(C)C3=O)cc2)cc1 (centres unmarked) [Example 281, 4-[2-Amino-4-(4-fluoro-3-pyridin-3-ylphenyl)-1-methyl-5-oxo-4,5-dihydro-1H-imidazol-4-yl]phenyl 4-(1,1-dimethylpropyl)benzenesulfonate]
363 | CC(C)S(=O)(=O)Oc1cccc(C2(c3ccc(F)c(-c4cccc(Cl)c4)c3)N=C(N)N(C)C2=O)c1 (centres unmarked) [Example 106, 3-[2-Amino-4-(3′-chloro-6-fluorobiphenyl-3-yl)-1-methyl-5-oxo-4,5-dihydro-1H-imidazol-4-yl]phenyl propane-2-sulfonate]
124 | CN1C(=O)C(c2cccc(OS(=O)(=O)c3ccccn3)c2)(c2ccc(F)c(-c3cncnc3)c2)N=C1N (centres unmarked) [Example 237, 3-[2-Amino-4-(4-fluoro-3-pyrimidin-5-ylphenyl)-1-methyl-5-oxo-4,5-dihydro-1H-imidazol-4-yl]phenyl pyridine-2-sulfonate]
330 | CCCS(=O)(=O)Oc1cccc(C2(c3ccc(F)c(-c4cc(Cl)cc(OC)c4)c3)N=C(N)N(C)C2=O)c1 (centres unmarked) [Example 99, 3-[2-Amino-4-(3′-chloro-6-fluoro-5′-methoxybiphenyl-3-yl)-1-methyl-5-oxo-4,5-dihydro-1H-imidazol-4-yl]phenyl propane-1-sulfonate]
725 | CN1C(=O)C(c2ccc(OS(C)(=O)=O)cc2)(c2ccc(F)c(/C=C/C3CC3)c2)N=C1N (centres unmarked) [Example 78, 4-(2-Amino-4-{3-[(E)-2-cyclopropylvinyl]-4-fluorophenyl}-1-methyl-5-oxo-4,5-dihydro-1H-imidazol-4-yl)phenyl methanesulfonate]

Compound | IC50 [nM]
CN1C(=O)C(c2cccc(OS(=O)(=O)c3ccc4c(c3)CCC4)c2)(c2ccc(F)c(-c3cccnc3)c2)N=C1N (centres unmarked) [Example 283, 3-[2-Amino-4-(4-fluoro-3-pyridin-3-ylphenyl)-1-methyl-5-oxo-4,5-dihydro-1H-imidazol-4-yl]phenyl indane-5-sulfonate 0.25 acetate] | 30
COc1ccc(C2(c3cccc(-c4cc(Cl)cc(OS(C)(=O)=O)c4)c3)N=C(N)N(C)C2=O)cc1C(F)(F)F (centres unmarked) [Example 61, 3′-{2-Amino-4-[4-methoxy-3-(trifluoromethyl)phenyl]-1-methyl-5-oxo-4,5-dihydro-1H-imidazol-4-yl}-5-chlorobiphenyl-3-ylmethanesulfonate] | 37
CN1C(=O)C(c2cccc(OS(C)(=O)=O)c2)(c2ccc(F)c(-c3cncc(F)c3)c2)N=C1N (centres unmarked) [Example 87, 3-{2-Amino-4-[4-fluoro-3-(5-fluoropyridin-3-yl)phenyl]-1-methyl-5-oxo-4,5-dihydro-1H-imidazol-4-yl}phenylmethanesulfonate] | 494
CN1C(=O)C(c2cccc(OS(C)(=O)=O)c2)(c2ccc(F)c(-c3cccnc3)c2)N=C1N (centres unmarked) [Example 90, 3-[2-Amino-4-(4-fluoro-3-pyridin-3-ylphenyl)-1-methyl-5-oxo-4,5-dihydro-1H-imidazol-4-yl]phenylmethanesulfonate] | 385
